# In patent US20100068150A1, “Selective Caspase Inhibitors” (The Board of Trustees of the Leland Stanford Junior …, priority 2006, published 2010):
# Experiments:
# [1] = molecular target: T1, FL-C7 (full-length caspase-7) (Homo sapiens, UniProt P55210); assay: Inhibitor specificity in hypotonic 293 extracts, full-length caspase-7; assay type: biochemical; conditions: inhibitor 20 μM for 5 min, then KMB01 30 min
# T1 construct: the p37 band as the full-length caspase-7 with intact N-terminus (FL-C7); endogenous in cells
# T1 sequence (P55210 1-303): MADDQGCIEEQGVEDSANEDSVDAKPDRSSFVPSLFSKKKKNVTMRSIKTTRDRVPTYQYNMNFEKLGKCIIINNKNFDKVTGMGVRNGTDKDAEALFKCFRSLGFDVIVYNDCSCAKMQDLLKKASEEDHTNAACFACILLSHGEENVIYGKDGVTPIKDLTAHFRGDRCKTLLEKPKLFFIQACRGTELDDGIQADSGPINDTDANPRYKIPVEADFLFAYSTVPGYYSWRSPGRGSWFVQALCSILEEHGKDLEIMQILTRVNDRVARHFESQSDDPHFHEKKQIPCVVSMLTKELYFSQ
# Excerpt: FIGS. 6 A-E illustrate that full-length active caspase-7 has unique inhibitor specificity and is processed to mature forms by downstream executioner caspases. (A) The caspase-3 specific inhibitor causes accumulation of a catalytically active full-length form of caspase-7. Cytosolic extracts from 293 cells were activated with cytochrome c/dATP for the indicated times followed by labeling with KMB01 (left panel) and western blotting with a caspase-7 specific antibody (right panel) as in FIG. 5A. […] (B) The exact same experiment as (A) except extracts from MCF-7 cells were used in place of 293 extracts. (**) indicates forms of caspase-7 that are likely a result of the alternative transcription start site at methionine-45 (C) Quantification of the relative activity of FL-C7 in uninhibited 293 extracts (from FIG. 5A), AB06 treated 293 extracts (from (A)) and uninhibited MCF-7 extracts (from (B)) (D) Inhibitor specificity of full-length and processed forms of caspase-7. Extracts (293) were activated for 5 min with cytochrome c/dATP and then incubated with NP-capped AOMK inhibitors containing the indicated primary amino acid sequences for 5 minutes before KMB01 was added and allowed to label residual caspase active sites for 30 minutes. Samples were analyzed by SDS-PAGE followed by biotin blotting using strepavidin-HRP (left panel) or western blotting for caspase-7 (right panel). Identities of labeled caspases are indicated. (E) Specificity of AB06 after prolonged incubation times. Extracts were treated with AB06 at the indicated concentrations simultaneously with cytochrome c/dATP. At the indicated times after activation, samples were labeled with KMB01 (10 μM) for 30 minutes. Labeled caspases were resolved by SDS-PAGE analysis followed by biotin blotting using strepavidin-HRP.
# To further confirm our assignment of the labeled species we treated samples at various activation times with purified recombinant Bir3 domain of XIAP. […]
# An additional surprising finding from the inhibitor studies was the overall lack of inhibition of the FL-C7 species by AB06 relative to mature p20 forms of caspase-7. […] Samples were analyzed for active site labeling and protein levels of both full-length and p20 forms of caspase-7 were monitored by western blot (FIG. 6D).
# Hypotonic 293 extracts (73 μg of total protein) were activated as described above and allowed to incubate for the indicated times. […] Labeling was carried out for an additional 30 minutes and samples (13.5 μg total protein) were analyzed by SDS-PAGE and biotin blotting as described above.
# Hypotonic 293 extracts (73 μg of total protein) were activated at 37° C. for 5 minutes as described above. […] Samples (13.5 μg total protein) were analyzed by SDS-PAGE and biotin blotting as described above
# [2] = molecular target: T2, caspase-9 in 293 extracts (Homo sapiens, UniProt P55211); assay: Intrinsic apoptosis assay in 293 extracts, KMB01 labeling of caspase-9; assay type: biochemical
# T2 construct: endogenous in cells
# Excerpt: To further confirm our assignment of the labeled species we treated samples at various activation times with purified recombinant Bir3 domain of XIAP. This polypeptide specifically binds to and inhibits caspase-9 but not caspase-3 or 7. […] We cannot rule out the possibility that p33 caspase-9 is the result of cleavage by some other protease or itself after it has already been labeled by KMB01 or inhibited by Bir3.
# Profiling of caspase activity in 293 extracts that had been treated with AB06 at the same time as cytochrome c/dATP confirmed the selectivity of our inhibitor. […]
# To confirm that our inhibitor AB06 was not reducing caspase 9 activity resulting in slow processing of caspase-7 and accumulation of a partially processed intermediate we treated extracts with a range of AB06 concentrations and monitored caspase-9 inhibition at various time points after cytochrome c/dATP addition. […]
# Hypotonic 293 or MCF-7 extracts (4.7 μg/μl total protein concentration; 73 μg of total protein per time point) were activated by addition of cytochrome c (100 uM final) and dATP (1 mM final) for a range of times from 0-240 minutes as indicated. […] A portion (13.5 μg total protein) from each time point was analyzed by SDS-PAGE using 10-20% gradient gels followed by blotting for biotin as described above. […]
# [3] = system: caspase-3, caspase-6, caspase-7, caspase-8, caspase-9; conditions: Kato et al., 2005; cited from earlier work
# T2 sequence (P55211 1-315 limits assumed): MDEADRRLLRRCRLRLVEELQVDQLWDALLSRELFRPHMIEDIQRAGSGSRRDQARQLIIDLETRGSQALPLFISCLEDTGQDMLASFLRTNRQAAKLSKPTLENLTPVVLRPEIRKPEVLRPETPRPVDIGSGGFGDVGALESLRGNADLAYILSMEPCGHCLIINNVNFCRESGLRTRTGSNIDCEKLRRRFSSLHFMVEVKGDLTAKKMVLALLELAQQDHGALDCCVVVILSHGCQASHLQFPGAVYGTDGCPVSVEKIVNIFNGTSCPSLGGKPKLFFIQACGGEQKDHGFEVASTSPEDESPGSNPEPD
# T2 sequence (P55211 331-416 limits assumed): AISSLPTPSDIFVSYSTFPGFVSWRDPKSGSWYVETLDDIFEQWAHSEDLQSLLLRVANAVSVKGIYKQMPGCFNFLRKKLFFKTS
# T2 sequence (O14727 whole entry partner): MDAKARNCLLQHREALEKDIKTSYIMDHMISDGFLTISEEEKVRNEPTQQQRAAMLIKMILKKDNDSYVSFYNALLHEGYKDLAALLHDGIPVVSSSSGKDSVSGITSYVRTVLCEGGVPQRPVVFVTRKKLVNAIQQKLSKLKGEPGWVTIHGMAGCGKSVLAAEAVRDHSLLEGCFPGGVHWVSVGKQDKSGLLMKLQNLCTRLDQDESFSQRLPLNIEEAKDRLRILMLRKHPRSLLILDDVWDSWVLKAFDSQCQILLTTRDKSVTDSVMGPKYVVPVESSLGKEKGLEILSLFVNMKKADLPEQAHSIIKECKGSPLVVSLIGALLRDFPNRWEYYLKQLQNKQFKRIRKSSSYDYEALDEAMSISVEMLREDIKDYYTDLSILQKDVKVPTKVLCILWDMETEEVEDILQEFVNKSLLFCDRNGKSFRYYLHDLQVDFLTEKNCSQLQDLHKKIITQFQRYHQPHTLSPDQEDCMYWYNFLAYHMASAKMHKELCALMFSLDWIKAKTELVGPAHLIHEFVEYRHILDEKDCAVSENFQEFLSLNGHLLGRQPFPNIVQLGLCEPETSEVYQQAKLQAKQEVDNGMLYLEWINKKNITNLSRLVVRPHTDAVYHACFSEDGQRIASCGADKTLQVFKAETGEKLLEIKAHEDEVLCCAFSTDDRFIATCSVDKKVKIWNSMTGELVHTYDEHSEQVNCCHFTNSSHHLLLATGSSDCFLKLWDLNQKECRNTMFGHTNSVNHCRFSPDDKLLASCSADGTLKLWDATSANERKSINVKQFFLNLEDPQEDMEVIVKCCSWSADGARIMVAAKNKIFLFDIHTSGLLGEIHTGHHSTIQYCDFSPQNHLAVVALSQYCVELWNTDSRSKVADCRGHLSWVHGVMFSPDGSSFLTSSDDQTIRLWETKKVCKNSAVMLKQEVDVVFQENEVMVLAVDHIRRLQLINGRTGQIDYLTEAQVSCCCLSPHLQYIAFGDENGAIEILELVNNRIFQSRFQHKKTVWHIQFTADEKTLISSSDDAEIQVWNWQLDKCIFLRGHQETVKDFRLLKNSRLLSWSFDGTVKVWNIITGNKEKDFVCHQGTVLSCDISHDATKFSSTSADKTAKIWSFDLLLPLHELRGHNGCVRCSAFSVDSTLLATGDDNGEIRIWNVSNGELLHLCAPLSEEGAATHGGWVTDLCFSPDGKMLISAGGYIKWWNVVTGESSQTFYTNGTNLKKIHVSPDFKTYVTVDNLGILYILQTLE
# T2 sequence (P99999 2-105 partner limits assumed): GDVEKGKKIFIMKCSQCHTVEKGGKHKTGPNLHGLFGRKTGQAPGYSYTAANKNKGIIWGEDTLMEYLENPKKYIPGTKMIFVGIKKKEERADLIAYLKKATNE
Compound,inhibition of FL-C7 labeling [1],KMB01 labeling of processed forms of caspase-9 and precursor forms of caspase-7 ([2]; AB06 added at the same time as cytochrome c/dATP),"cross reactivity with caspase-9 ([2]; range of AB06 concentrations, as high as 10 μM for up to 30 minutes)",labeling of caspases by probe [3]
"Cc1cccc(C)c1C(=O)OCC(=O)[C@H](CC(=O)O)NC(=O)[C@@H](NC(=O)[C@H](Cc1ccncc1)NC(=O)[C@H](CC(=O)O)NC(=O)Cc1ccc(O)c([N+](=O)[O-])c1)C(C)C [AB06, Np-D-3-V-D-DMBA]",relatively insensitive to inhibition,unaltered,lack of cross reactivity,
"Bio-EVD-AOMK [KMB01, reference compound]",,,,"robust labeling of caspase-9 as well as caspase-3, caspase-7 and caspase-8"
"Cc1cccc(C)c1C(=O)OCC(=O)[C@H](CC(=O)O)NC(=O)[C@@H](NC(=O)[C@H](CCC(=O)O)NC(=O)[C@H](CC(=O)O)NC(=O)Cc1ccc(O)c([N+](=O)[O-])c1)C(C)C [AB09, Np-D-E- V-D-DMBA]",almost totally inhibited,,,
